In patent US20260035363A1, “COMPOUNDS AND METHODS OF USE THEREOF AS ANTIBACTERIAL AGENTS” (priority 2019, published 2026):
pIC50: −log10 of the molar value. Converted amounts (≈) assume the structure as drawn. Like-named read-outs stand apart in the source and are kept apart here.

What was measured:
Type in all cases: cell-based
[1] = tested on: Mycobacterium tuberculosis (Mtb-GFP; H37Rv pMSP12::GFP); assay: microbe, parasite or virus in culture; settings: 168 h, pH 6.8, read-out: Mtb Cho MITC95, cholesterol carbon source, pH 6.8, 7-day growth, GFP fluorescence, lowest concentration inhibiting 95% of growth
[2] = tested on: Mycobacterium tuberculosis (Mtb-GFP; H37Rv pMSP12::GFP); assay: microbe, parasite or virus in culture; settings: 168 h, pH 6.8, read-out: Mtb Glu MITC95, glucose carbon source, pH 6.8, 7-day growth, GFP fluorescence, lowest concentration inhibiting 95% of growth
[3] = tested on: mitochondrial protein synthesis in HepG2 cells; assay: Mitochondrial protein synthesis assay (COX-I to SDH-A ratio, In Cell ELISA); settings: Homo sapiens, HepG2, 96 h, 4 days, ratio of COX-I to SDH-A levels, read-out: MPS IC50
Protocol: Mitochondrial Protein Synthesis Assay
Inhibition of mitochondrial protein synthesis was assessed in HepG2 cells by comparing the levels of two subunits of oxidative phosphorylation enzyme complexes, subunit I of Complex IV (COX-I) and the 70 kDa subunit of Complex II (SDH-A). COX-I is mitochondrial DNA encoded and SDH-A is nuclear DNA encoded. HepG2 cells were seeded in 96-well collagen coated plates at 8,000 cells per well and exposed to 2-fold serial dilutions of compounds from 100 μM to 6.25 μM. Microtiter plates were incubated for approximately 5 replication cycles (4 days) prior to assessment of protein levels using a kit as described by the manufacturer (ab110217 MitoBiogenesis In Cell ELISA Kit, Abcam, Cambridge, MA). Inhibition of mitochondrial protein synthesis was expressed as a ratio of COX-1 to SDH-A levels.

Molecule `Cc1nnc2cc(-c3c(F)cc(C4=NO[C@@H](Cn5ccnn5)C4)cc3F)ccn12` [Example 16, (5R)-3-[3,5-Difluoro-4-(3-methyl-[1,2,4]triazolo[4,3-a]pyridin-7-yl)phenyl]-5-(triazol-1-ylmethyl)-4,5-dihydroisoxazole] has an MIC [1] of 0.59 µM (≈ 0.233 µg/mL), an MIC [2] of 0.39 µM (≈ 0.154 µg/mL) and a pIC50 [3] of 5.27.

`CN1CC(C)(S(=O)(=O)c2ccc(-c3ccc(C4=NO[C@@H](Cn5ccnn5)C4)cc3F)cc2)C1` [Example 3, (5R)-3-[4-[4-(1,3-Dimethylazetidin-3-yl)sulfonylphenyl]-3-fluoro-phenyl]-5-(triazol-1-ylmethyl)-4,5-dihydroisoxazole] gave an MIC [1] of 0.14 µM (≈ 0.0657 µg/mL), an MIC [2] of 0.12 µM (≈ 0.0563 µg/mL) and a pIC50 [3] of 5.21.

`CN1CC(C)(S(=O)(=O)c2ccc(-c3ccc(C4=NO[C@@H](CNC(=O)C5(C)CC5)C4)cc3F)cc2)C1` [Example 27, N-({(5R)-3-[4′-(1,3-Dimethylazetidine-3-sulfonyl)-2-fluoro[1,1′-biphenyl]-4-yl]-4,5-dihydro-1,2-oxazol-5-yl}methyl)-1-methylcyclopropane-1-carboxamide] was tested, and the MIC [1] was 0.78 µM (≈ 0.39 µg/mL), the MIC [2] was 0.78 µM (≈ 0.39 µg/mL) and the pIC50 [3] was 4.43.

Molecule `CC(=O)NC[C@H]1CN(c2ccc(N3CCOCC3)c(F)c2)C(=O)O1` [linezolid, reference compound] has an MIC [1] of 3.14 µM (≈ 1.06 µg/mL), an MIC [2] of 4.58 µM (≈ 1.55 µg/mL) and a pIC50 [3] of 5.10.

Molecule `CN1CC(C)(S(=O)(=O)c2ccc(-c3ccc(C4=NO[C@@H](Cn5ccnn5)C4)c(F)c3F)cc2)C1` [Example 26, 1-({(5R)-3-[4′-(1,3-Dimethylazetidine-3-sulfonyl)-2,3-difluoro[1,1′-biphenyl]-4-yl]-4,5-dihydro-1,2-oxazol-5-yl}methyl)-1H-1,2,3-triazole] has an MIC [1] of 0.39 µM (≈ 0.19 µg/mL), an MIC [2] of 0.39 µM (≈ 0.19 µg/mL) and a pIC50 [3] of 4.55.

For `CN1CC(F)(S(=O)(=O)c2ccc(-c3ccc(C4=NO[C@@H](Cn5ccnn5)C4)cc3F)cc2)C1` [Example 44, l-({(5R)-3-[2-Fluoro-4′-(3-fluoro-1-methylazetidine-3-sulfonyl)[1,1′-biphenyl]-4-yl]-4,5-dihydro-1,2-oxazol-5-yl}methyl)-1H-1,2,3-triazole], the MIC [1] was 0.12 µM (≈ 0.0568 µg/mL), the MIC [2] was 0.09 µM (≈ 0.0426 µg/mL) and the pIC50 [3] was 5.85.

`N#Cc1ccc(-c2ccc(C3=NO[C@@H](COC(N)=O)C3)cc2F)cn1` [Example 20, {(5R)-3-[4-(6-Cyanopyridin-3-yl)-3-fluorophenyl]-4,5-dihydro-1,2-oxazol-5-yl}methyl carbamate] showed an MIC [1] of 0.19 µM (≈ 0.0647 µg/mL), an MIC [2] of 0.39 µM (≈ 0.133 µg/mL) and a pIC50 [3] of 5.14.

`CN1CC(C)(S(=O)(=O)c2ccc(-c3ccc(C4=NO[C@@H](CNC(=O)C56CC(C5)C6)C4)cc3F)cc2)C1` [Example 28, N-({(5R)-3-[4′-(1,3-Dimethylazetidine-3-sulfonyl)-2-fluoro[1,1′-biphenyl]-4-yl]-4,5-dihydro-1,2-oxazol-5-yl}methyl)bicyclo[1.1.1] pentane-1-carboxamide] was tested, and the MIC [1] was 0.78 µM (≈ 0.399 µg/mL), the MIC [2] was 1.56 µM (≈ 0.798 µg/mL) and the pIC50 [3] was 4.21.

Work on `CN1CC(S(=O)(=O)c2ccc(-c3ccc(C4=NO[C@@H](CNS(C)(=O)=O)C4)cc3F)cc2)C1` [Example 11, N-({(5R)-3-[2-Fluoro-4′-(1-methylazetidine-3-sulfonyl)[1,1′-biphenyl]-4-yl]-4,5-dihydro-1,2-oxazol-5-yl}methyl)methanesulfonamide] yielded an MIC [1] of 1.17 µM (≈ 0.563 µg/mL), an MIC [2] of 0.975 µM (≈ 0.47 µg/mL) and a pIC50 [3] of under 4.00.

Molecule `CN1CC(S(=O)(=O)c2ccc(-c3c(F)cc(C4=NO[C@@H](CO)C4)cc3F)cc2)C1` [Example 41, {(5R)-3-[2,6-Difluoro-4′-(1-methylazetidine-3-sulfonyl)[1,1′-biphenyl]-4-yl]-4,5-dihydro-1,2-oxazol-5-yl}methanol] has an MIC [1] of 2.34 µM (≈ 0.989 µg/mL), an MIC [2] of 1.56 µM (≈ 0.659 µg/mL) and a pIC50 [3] of under 4.00.

`CN=S1(=O)CCN(c2c(F)cc(C3=NO[C@@H](Cn4ccnn4)C3)cc2F)CC1` [Example 31, 4-(2,6-Difluoro-4-{(5R)-5-[(1H-1,2,3-triazol-1-yl)methyl]-4,5-dihydro-l,2-oxazol-3-yl}phenyl)-1-(methylimino)-1λ^6-thiomorpholin-1-one] gave an MIC [1] of 5.47 µM (≈ 2.25 µg/mL), an MIC [2] of 4.69 µM (≈ 1.93 µg/mL) and a pIC50 [3] of under 4.00.

Molecule `O=C(NC[C@H]1CC(c2cc(F)c(C3(F)CCS(=O)(=O)CC3)c(F)c2)=NO1)OC1CC1` [Example 50, Cyclopropyl({(5R)-3-[3,5-difluoro-4-(4-fluoro-1,1-dioxo-1λ^6-thian-4-yl)phenyl]-4,5-dihydro-1,2-oxazol-5-yl}methyl)carbamate] has an MIC [1] of 3.12 µM (≈ 1.39 µg/mL), an MIC [2] of 3.12 µM (≈ 1.39 µg/mL) and a pIC50 [3] of under 4.00.

With `CN1CC(C)(S(=O)(=O)c2ccc(-c3ccc(C4=NO[C@@H](C(N)=O)C4)cc3F)cc2)C1` [Example 56, (5R)-3-[4′-(1,3-Dimethylazetidine-3-sulfonyl)-2-fluoro[1,1′-biphenyl]-4-yl]-4,5-dihydro-1,2-oxazole-5-carboxamide] the MIC [1] was 6.25 µM (≈ 2.7 µg/mL), the MIC [2] was 13 µM (≈ 5.61 µg/mL) and the pIC50 [3] was under 4.00.

Molecule `CN1CC(S(=O)(=O)c2ccc(-c3c(F)cc(C4=NO[C@@H](CNS(C)(=O)=O)C4)cc3F)cc2)C1` [Example 33, N-({(5R)-3-[2,6-Difluoro-4′-(1-methylazetidine-3-sulfonyl)[1,1′-biphenyl]-4-yl]-4,5-dihydro-1,2-oxazol-5-yl}methyl) methanesulfonamide] has an MIC [1] of 1.66 µM (≈ 0.829 µg/mL), an MIC [2] of 1.56 µM (≈ 0.779 µg/mL) and a pIC50 [3] of under 4.00.

`CN=S1(=O)CCC(F)(c2c(F)cc(C3=NO[C@@H](CNC(=O)OC)C3)cc2F)CC1` (single isomer, unassigned) [Example 8] showed an MIC [1] of 3.12 µM (≈ 1.35 µg/mL), an MIC [2] of 3.12 µM (≈ 1.35 µg/mL) and a pIC50 [3] of under 4.00.

Molecule `CC1(c2nnc3cc(-c4ccc(C5=NO[C@@H](Cn6ccnn6)C5)cc4F)ccn23)CNC1` [Example 12, 7-(2-Fluoro-4-{(5R)-5-[(1H-1,2,3-triazol-1-yl)methyl]-4,5-dihydro-1,2-oxazol-3-yl}phenyl)-3-(3-methylazetidin-3-yl)[1,2,4]triazolo[4,3-a]pyridine] has an MIC [1] of 0.78 µM (≈ 0.337 µg/mL), an MIC [2] of 0.78 µM (≈ 0.337 µg/mL) and a pIC50 [3] of under 4.00.

`CCC1(S(=O)(=O)c2ccc(-c3ccc(C4=NO[C@@H](Cn5ccnn5)C4)cc3F)cc2)CN(C)C1` [Example 43, 1-({(5R)-3-[4′-(3-Ethyl-1-methylazetidine-3-sulfonyl)-2-fluoro[1,1′-biphenyl]-4-yl]-4,5-dihydro-1,2-oxazol-5-yl}methyl)-1H-1,2,3-triazole] showed an MIC [1] of 0.19 µM (≈ 0.0919 µg/mL), an MIC [2] of 0.19 µM (≈ 0.0919 µg/mL) and a pIC50 [3] of 5.39.

`CN1CC(F)(c2nnc3cc(-c4ccc(C5=NO[C@@H](Cn6ccnn6)C5)cc4F)ccn23)C1` [Example 51, 3-(3-Fluoro-1-methylazetidin-3-yl)-7-(2-fluoro-4-{(5R)-5-[(1H-1,2,3-triazol-1-yl)methyl]-4,5-dihydro-1,2-oxazol-3-yl}phenyl)[1,2,4]triazolo [4.3-a]pyridine] showed an MIC [1] of 0.09 µM (≈ 0.0405 µg/mL), an MIC [2] of 0.09 µM (≈ 0.0405 µg/mL) and a pIC50 [3] of 5.85.
